Key:
hLPA3 = molecular target: T1, hLPA3 (Homo sapiens, UniProt Q9UBY5); assay: TGFα-shedding assay, LPA3; assay type: cell-based; settings: 293A cells, AP-TGFα release; for EC50: 1 h; for Emax: read-out: Emax ± SEM hLPA3 (converted)
T1 construct: expressed in transfected cells; host or cells: 293A cells
T1 sequence (Q9UBY5 1-353): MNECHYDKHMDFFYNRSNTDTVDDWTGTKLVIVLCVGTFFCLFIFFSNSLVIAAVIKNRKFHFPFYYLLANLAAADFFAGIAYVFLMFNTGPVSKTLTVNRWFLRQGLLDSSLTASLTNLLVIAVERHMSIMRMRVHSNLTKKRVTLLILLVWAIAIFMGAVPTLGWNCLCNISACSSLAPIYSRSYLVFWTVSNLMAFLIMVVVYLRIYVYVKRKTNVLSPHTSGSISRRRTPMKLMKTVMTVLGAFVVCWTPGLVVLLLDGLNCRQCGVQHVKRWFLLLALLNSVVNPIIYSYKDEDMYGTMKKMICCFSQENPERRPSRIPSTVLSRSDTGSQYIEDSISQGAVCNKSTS
Procedure: (§1) 293A cells expressing LPA receptors were stimulated with the indicated concentration of LPA, 2carbaLPA, and cPA analogues. Receptor-specific alkaline phosphatase-tagged transforming growth factor-α release was calculated by subtracting the responses in the empty vector-transfected cells from those in the receptor-expressing cells. Data are represented as standard error of the mean of three independent replicates.
(§2) 293A cells (Life Technologies, Tokyo, Japan) were cultured in DMEM (Nissui Pharmaceutical, Tokyo, Japan) supplemented with 10% foetal calf serum (Gibco, Waltham, MA, USA) in an incubator at 37 °C and 5% CO2. This assay was conducted according to a modified version of a method described previously. […] The cells were co-transfected with vectors-expressing human LPA1–6, alkaline phosphatase-tagged TGFα (AP-TGFα). As negative controls, cells transfected with an empty vector instead of the receptor-expressing vector were used. After 24 h, the cells were resuspended in Hank’s balanced salt solution (HBSS), seeded in 96-well plates, and stimulated with cPA analogues administered at tenfold concentration of the final concentration. The cPA analogues were diluted with HBSS, 0.01% protease and fatty acid-free BSA (SERVA Electrophoresis GmbH, Heidelberg, Germany). Cells for LPA4, LPA5, and LPA6 analysis were treated with Ki16425 (final concentration: 10 μM), 5 min before treatment with the cPA analogues. After incubation for 1 h at 37 °C, 80 µL of the supernatant was transferred to fresh 96-well plates. An equal volume of 1 mM p-NPP solution [120 mM Tris–HCl (pH 9.5), 40 mM NaCl, and 10 mM MgCl2] was added to both the supernatant and the cells. Alkaline phosphatase activity was calculated by measuring absorbance at 405 nm using the Cytation 3 plate reader (BioTek, Winooski, VT, USA).

hLPA4 = molecular target: T2, hLPA4 (Homo sapiens, UniProt Q99677); assay: TGFα-shedding assay, LPA4; assay type: cell-based; settings: 293A cells, AP-TGFα release; for EC50: 1 h, with Ki16425 10 μM; for Emax: read-out: Emax ± SEM hLPA4 (converted)
T2 construct: expressed in transfected cells; host or cells: 293A cells
Procedure: as §1, §2

human recombinant ATX = molecular target: T3, human recombinant ATX (Homo sapiens, UniProt Q13822); assay: Choline oxidase assay of LPC cleavage by ATX; assay type: biochemical; settings: LPC 16:0 300 µM, ATX 50 nM, 2 h, 37 °C, various concentrations
T3 construct: purchased Cayman Chemical
Procedure: (a) Concentration–response curves for the inhibition of ATX activity as measured by the […] of the substrate lysophosphatidylcholine (LPC) using choline oxidase and peroxidase. LPC 16:0 (final concentration: 300 µM, above its critical micellar concentration [CMC]), human recombinant ATX (final concentration: 50 nM), and various concentrations of cPA analogues were used for incubation with 4-aminoantipyrine, TOOS (final concentration: 0.05% (w/v) each), choline oxidase and peroxidase (final concentration: 10 U/mL each) in the ATX assay buffer. […] Inhibition was calculated as percentage (%) of reduction in absorbance compared with absorbance in the vehicle control (without cPA analogues) after subtraction of the value measured at time 0. Data are represented as mean ± standard deviation (n = 3–4 samples). (b) Inhibition of ATX activity measured by lysophosphatidic acid (LPA 16:0) production via liquid chromatography coupled to triple quadrupole mass spectrometry (LC-QqQ). The substrate LPC 16:0 (final concentration: 300 µM) was incubated with human recombinant ATX (final concentration: 50 nM) and cPA analogues (final concentration: 10 μM) for 2 h at 37 °C. The ATX product, LPA 16:0, was quantified by LC-QqQ. Inhibition was calculated as percentage (%) of reduction in LPA production compared with LPA production in the vehicle control (without cPA analogues). Data are represented as mean ± standard deviation (n = 5–6 samples).
Human recombinant ATX (50 nM final concentration, 5 µL in ATX assay buffer: 50 mM Tris, 140 mM NaCl, 5 mM KCl, 1 mM CaCl2, 1 mM MgCl2, pH 8.0) and cPA analogues (5 µL each in ATX assay buffer) at various concentrations were added in a 96-well plate and mixed with 90 µL of LPC 16:0 (final concentration: 300 µM) as substrate, 4-aminoantipyrine, TOOS (final concentration: 0.05% w/v each), choline oxidase and peroxidase (final concentration: 10 units/mL each) in ATX assay buffer. […] Inhibition was calculated as a percentage (%) of reduction in absorbance compared to absorbance in the vehicle control (without cPA analogues) after subtraction of the value measured at time 0.

T2 sequence (Q99677 whole entry): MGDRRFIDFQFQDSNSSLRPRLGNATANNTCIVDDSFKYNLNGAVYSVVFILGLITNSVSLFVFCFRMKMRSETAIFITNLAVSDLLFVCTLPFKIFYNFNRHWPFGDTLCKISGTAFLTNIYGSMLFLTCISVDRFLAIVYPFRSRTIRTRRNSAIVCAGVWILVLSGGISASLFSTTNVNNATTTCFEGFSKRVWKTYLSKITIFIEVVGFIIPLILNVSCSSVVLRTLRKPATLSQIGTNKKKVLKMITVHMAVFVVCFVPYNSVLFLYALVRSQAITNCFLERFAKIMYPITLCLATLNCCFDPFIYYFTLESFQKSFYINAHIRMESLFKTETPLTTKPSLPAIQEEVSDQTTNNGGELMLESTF

EC50 (hLPA3)	Emax (hLPA3)	EC50 (hLPA4)	Emax (hLPA4)	SMILES	Inhibition of lysoPLD activity of ATX (choline oxidase assay) (human recombinant ATX)
0.0116 µM	42.7%	0.001 µM	24.9%	CCCCCCCC/C=C\CCCCCCCC(=O)OCC(CO)CP(=O)(O)O (stereo not drawn) [2carbaLPA 18:1, 2-carba-lysophosphatidic acid]	inhibited the lysoPLD activity of ATX in a dose-dependent manner
0.286 µM	30.8%	0.0719 µM	19.6%	CCCCCCCC/C=C\CCCCCCCC(=O)OCC1COP(=O)(O)C1 (stereo not drawn) [2ccPA 18:1, 2-carba-cyclic phosphatidic acid]	inhibited the lysoPLD activity of ATX in a dose-dependent manner
0.0056 µM	44.3%	0.0019 µM	23.5%	CCCCCCCC/C=C\CCCCCCCC(=O)OC[C@@H](O)CCP(=O)(O)O [3carba LPA 18:1, 3-carba-lysophosphatidic acid]	inhibited the lysoPLD activity of ATX in a dose-dependent manner
	37.4%	0.0923 µM	23.3%	CCCCCCCC/C=C\CCCCCCCC(=O)OC[C@@H]1CCP(=O)(O)O1 [3ccPA 18:1, 3-carba-cyclic phosphatidic acid]	lower inhibitory activity than the other analogues, except for LPA and cPA
0.439 µM	16.8%	0.0328 µM	17.2%	CCCCCCCC/C=C\CCCCCCCC(=O)OC[C@@H]1COP(=O)(O)O1 [cPA 18:1, 1-Oleoyl-cPA]	significantly lower inhibitory activity

— publication PMC8405639, “2-Carba-lysophosphatidic acid is a novel β-lysophosphatidic acid analogue with high potential for lysophosphatidic acid receptor activation and autotaxin inhibition” (Scientific Reports, 2021)
